Measurements from patent US20240368127A1, “HSD17B13 INHIBITORS AND USES THEREOF” (FL2022-001, Inc., priority 2021, published 2024).

Biological target: T1, Recombinant human HSD17B13 enzyme (Homo sapiens, UniProt Q7Z5P4)
T1 sequence (Q7Z5P4 20-300): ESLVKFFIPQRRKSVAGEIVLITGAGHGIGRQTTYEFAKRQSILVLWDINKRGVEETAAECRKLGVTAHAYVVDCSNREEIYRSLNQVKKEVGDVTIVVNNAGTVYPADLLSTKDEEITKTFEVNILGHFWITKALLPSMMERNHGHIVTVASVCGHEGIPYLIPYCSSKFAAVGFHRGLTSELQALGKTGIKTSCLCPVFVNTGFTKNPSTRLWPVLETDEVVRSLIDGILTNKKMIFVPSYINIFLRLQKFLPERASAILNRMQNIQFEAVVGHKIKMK
Test: HSD17b13 NAD(P)H-Glo biochemical assay
Conditions: 50 μM estradiol, 1 mM NAD+, 37° C. for 3 hours; read-out: HSD17β13 IC50
Method: Example B-1: HSD17b13 NAD (P) H-Glo Biochemical Assay
Recombinant human HSD17B13 enzyme. Substrate: estradiol (Sigma β-Estradiol E8875), 100 mM in DMSO. Cofactor: NAD+ Grade I free acid (Sigma 10127965001), 20 mM in H2O. Assay buffer final concentration: 20 mM Tris pH7.4 with 0.002% Tween-20 and 0.02% BSA. Assay performed in 384 well solid bottom plate (Corning 3570). Enzymatic activity detected by NAD (P) H-Glo™ Detection System (Promega G9062).
Inhibitor compounds were serially diluted in DMSO and then further diluted in assay buffer to a 10× concentration consisting of 1% DMSO.
HSD17b13 enzyme was diluted in 1× assay buffer to the desired enzyme concentration based on the specific activity of the enzyme lot. 20 μL of diluted enzyme was added to each well along with 2.5 μL of 10× inhibitor solution. Assay plate was incubated at RT for 20 minutes, and then 2.5 μL of a 10× substrate/cofactor mix was added to each well for a final concentration of 50 μM estradiol and 1 mM NAD+. Assay plate was incubated at 37° C. for 3 hours. NAD (P) H-Glo™ Detection System reagents were prepared according to manufacturer's specifications, and 25 μL was added to each well. After incubating for 1 hour at RT, luminescence was measured.

| SMILES | IC50 [nM] |
| --- | --- |
| Cc1nn(-c2ccc(F)c(O)c2F)c2cnc(N3CCN(S(C)(=O)=O)C[C@H]3Cc3ccccc3)cc12 [Compound 2.15, (R)-3-(5-(2-Benzyl-4-(methylsulfonyl)piperazin-1-yl)-3-methyl-1H-pyrazolo[3,4-c]pyridin-1-yl)-2,6-difluorophenol] | ≤ 100 |
| Cc1nn(-c2ccc(Cl)c(O)c2F)c2cnc(N3CCN(S(C)(=O)=O)C[C@H]3Cc3ccccc3)cc12 [Compound 2.16, (R)-3-(5-(2-Benzyl-4-(methylsulfonyl)piperazin-1-yl)-3-methyl-1H-pyrazolo[3,4-c]pyridin-1-yl)-6-chloro-2-fluorophenol] | ≤ 100 |
| Cc1nn(-c2ncc(Cl)c(O)c2F)c2cnc(N3CCN(S(C)(=O)=O)C[C@H]3Cc3ccccc3)cc12 [Compound 2.17, (R)-2-(5-(2-Benzyl-4-(methylsulfonyl)piperazin-1-yl)-3-methyl-1H-pyrazolo[3,4-c]pyridin-1-yl)-5-chloro-3-fluoropyridin-4-ol] | 100 to 1000 |
| CS(=O)(=O)N1CCN(c2cc3c(Cl)nn(-c4cc(C(F)(F)F)c(Cl)c(O)c4F)c3cn2)[C@H](Cc2ccccc2)C1 [Compound 2.22, (R)-3-(5-(2-Benzyl-4-(methylsulfonyl)piperazin-1-yl)-3-chloro-1H-pyrazolo[3,4-c]pyridin-1-yl)-6-chloro-2-fluoro-5-(trifluoromethyl)phenol] | ≤ 100 |
| Cc1nn(-c2cc(O)cc(C(F)(F)F)c2)c2ccc(N3CCN(S(C)(=O)=O)C[C@H]3Cc3ccccc3)cc12 [Compound 2.26, (R)-3-(5-(2-Benzyl-4-(methylsulfonyl)piperazin-1-yl)-3-methyl-1H-indazol-1-yl)-5-(trifluoromethyl)phenol] | 100 to 1000 |
| Cc1nn(-c2cc(C(F)(F)F)c(Cl)c(O)c2F)c2ccc(N3CCN(S(C)(=O)=O)C[C@H]3Cc3ccccc3)cc12 [Compound 2.27, (R)-3-(5-(2-Benzyl-4-(methylsulfonyl)piperazin-1-yl)-3-methyl-1H-indazol-1-yl)-6-chloro-2-fluoro-5-(trifluoromethyl)phenol] | ≤ 100 |
| Cc1nn(-c2cc(C(F)(F)F)cc(O)c2F)c2ccc(N3CCN(S(C)(=O)=O)C[C@H]3Cc3ccccc3)cc12 [Compound 2.28, (R)-3-(5-(2-Benzyl-4-(methylsulfonyl)piperazin-1-yl)-3-methyl-1H-indazol-1-yl)-2-fluoro-5-(trifluoromethyl)phenol] | ≤ 100 |
| Cc1c2cc(N3CCN(S(C)(=O)=O)C[C@H]3Cc3ccccc3)ccc2nn1-c1cc(O)cc(C(F)(F)F)n1 [Compound 2.30, (R)-2-(5-(2-Benzyl-4-(methylsulfonyl)piperazin-1-yl)-3-methyl-2H-indazol-2-yl)-6-(trifluoromethyl)pyridin-4-ol] | 1000 to 30000 |
| Cc1nn(-c2cc(C(F)(F)F)c(F)c(O)c2F)c2cnc(N3CCOC[C@H]3Cc3ccccc3)nc12 [Compound 2.31, (R)-3-(5-(3-Benzylmorpholino)-3-methyl-1H-pyrazolo[4,3-d]pyrimidin-1-yl)-2,6-difluoro-5-(trifluoromethyl)phenol] | ≤ 100 |
| CCN1CCN(c2ncc3c(n2)c(C)nn3-c2cc(C(F)(F)F)c(F)c(O)c2F)[C@H](Cc2ccccc2)C1 [Compound 2.32, (R)-3-(5-(2-Benzyl-4-ethylpiperazin-1-yl)-3-methyl-1H-pyrazolo[4,3-d]pyrimidin-1-yl)-2,6-difluoro-5-(trifluoromethyl)phenol] | ≤ 100 |
| Cn1nc(-c2cc(C(F)(F)F)c(F)c(O)c2F)c2cnc(N3CCOCC3CC3CC3)nc21 (stereo not shown) [Compound 5.01, 3-(6-(3-(Cyclopropylmethyl)morpholino)-1-methyl-1H-pyrazolo[3,4-d]pyrimidin-3-yl)-2,6-difluoro-5-(trifluoromethyl)phenol] | ≤ 100 |

Now from value to compound:

| IC50 [nM] | SMILES |
| --- | --- |
| ≤ 100 | CS(=O)(=O)N1CCN(c2ncc3c(n2)c(Cl)nn3-c2cc(C(F)(F)F)c(F)c(O)c2F)[C@H](Cc2ccccc2)C1 [Compound 2.18, (R)-3-(5-(2-Benzyl-4-(methylsulfonyl)piperazin-1-yl)-3-chloro-1H-pyrazolo[4,3-d]pyrimidin-1-yl)-2,6-difluoro-5-(trifluoromethyl)phenol] |
| ≤ 100 | CS(=O)(=O)N1CCN(c2cc3cnn(-c4cc(C(F)(F)F)c(F)c(O)c4F)c3cn2)[C@H](Cc2ccccc2)C1 [Compound 2.19, (R)-3-(5-(2-Benzyl-4-(methylsulfonyl)piperazin-1-yl)-1H-pyrazolo[3,4-c]pyridin-1-yl)-2,6-difluoro-5-(trifluoromethyl)phenol] |
| ≤ 100 | CS(=O)(=O)N1CCN(c2cc3c(Cl)nn(-c4cc(C(F)(F)F)c(F)c(O)c4F)c3cn2)[C@H](Cc2ccccc2)C1 [Compound 2.20, (R)-3-(5-(2-Benzyl-4-(methylsulfonyl)piperazin-1-yl)-3-chloro-1H-pyrazolo[3,4-c]pyridin-1-yl)-2,6-difluoro-5-(trifluoromethyl)phenol] |
| ≤ 100 | Cc1nn(-c2cc(C(F)(F)F)c(Cl)c(O)c2F)c2cnc(N3CCN(S(C)(=O)=O)C[C@H]3Cc3ccccc3)nc12 [Compound 2.21, (R)-3-(5-(2-Benzyl-4-(methylsulfonyl)piperazin-1-yl)-3-methyl-1H-pyrazolo[4,3-d]pyrimidin-1-yl)-6-chloro-2-fluoro-5-(trifluoromethyl)phenol] |
| ≤ 100 | CS(=O)(=O)N1CCN(c2cc3c(N)nn(-c4cc(C(F)(F)F)c(F)c(O)c4F)c3cn2)[C@H](Cc2ccccc2)C1 [Compound 2.23, (R)-3-(3-Amino-5-(2-benzyl-4-(methylsulfonyl)piperazin-1-l)-1H-pyrazolo[3,4-c]pyridin-1-yl)-2,6-difluoro-5-(trifluoromethyl)phenol] |
| ≤ 100 | CNc1nn(-c2cc(C(F)(F)F)c(F)c(O)c2F)c2cnc(N3CCN(S(C)(=O)=O)C[C@H]3Cc3ccccc3)cc12 [Compound 2.24, (R)-3-(5-(2-Benzyl-4-(methylsulfonyl)piperazin-1-yl)-3-(methylamino)-1H-pyrazolo[3,4-c]pyridin-1-yl)-2,6-difluoro-5-(trifluoromethyl)phenol] |
| ≤ 100 | CN(C)c1nn(-c2cc(C(F)(F)F)c(F)c(O)c2F)c2ccc(N3CCN(S(C)(=O)=O)C[C@H]3Cc3ccccc3)cc12 [Compound 2.25, (R)-3-(5-(2-Benzyl-4-(methylsulfonyl)piperazin-1-yl)-3-(dimethylamino)-1H-indazol-1-yl)-2,6-difluoro-5-(trifluoromethyl)phenol] |
| ≤ 100 | Cc1nn(-c2cc(C(F)(F)F)c(F)c(O)c2F)c2cc(F)c(N3CCN(S(C)(=O)=O)C[C@H]3Cc3ccccc3)nc12 [Compound 2.33, (R)-3-(5-(2-Benzyl-4-(methylsulfonyl)piperazin-1-yl)-6-fluoro-3-methyl-1H-pyrazolo[4,3-b]pyridin-1-yl)-2,6-difluoro-5-(trifluoromethyl)phenol] |
| ≤ 100 | Cc1nn(-c2cc(C(F)(F)F)c(F)c(O)c2F)c2cc(Cl)c(N3CCN(S(C)(=O)=O)C[C@H]3Cc3ccccc3)nc12 [Compound 2.34, (R)-3-(5-(2-Benzyl-4-(methylsulfonyl)piperazin-1-yl)-6-chloro-3-methyl-1H-pyrazolo[4,3-b]pyridin-1-yl)-2,6-difluoro-5-(trifluoromethyl)phenol] |
| ≤ 100 | Cc1nn(-c2cc(Cl)c(F)c(O)c2F)c2cnc(N3CCN(S(C)(=O)=O)C[C@H]3Cc3ccccc3)nc12 [Compound 2.35, (R)-3-(5-(2-Benzyl-4-(methylsulfonyl)piperazin-1-yl)-3-methyl-1H-pyrazolo[4,3-c]pyrimidin-1-yl)-5-chloro-2,6-difluorophenol] |
| ≤ 100 | CS(=O)(=O)N1CCN(c2ncc3c(cnn3-c3cc(O)c(F)c(C(F)(F)F)c3)n2)[C@H](Cc2ccccc2)C1 [Compound 2.36, (R)-5-(5-(2-Benzyl-4-(methylsulfonyl)piperazin-1-yl)-1H-pyrazolo[4,3-d]pyrimidin-1-yl)-2-fluoro-3-(trifluoromethyl)phenol] |
| ≤ 100 | Cn1nc(-c2cc(C(F)(F)F)c(F)c(O)c2F)c2cnc(N3CCN(S(C)(=O)=O)C[C@H]3Cc3ccccc3)nc21 [Compound 5, (R)-3-(6-(2-Benzyl-4-(methylsulfonyl)piperazin-1-yl)-1-methyl-1H-pyrazolo[3,4-d]pyrimidin-3-yl)-2,6-difluoro-5-(trifluoromethyl)phenol] |
| ≤ 100 | Cn1nc(-c2cc(C(F)(F)F)c(F)c(O)c2F)c2cnc(N3CCOC(Cc4ccccc4)C3)nc21 (stereo not shown) [Compound 5.02, 3-(6-(2-Benzylmorpholino)-1-methyl-1H-pyrazolo[3,4-d]pyrimidin-3-yl)-2,6-difluoro-5-(trifluoromethyl)phenol] |
| ≤ 100 | Cn1nc(-c2cc(C(F)(F)F)c(F)c(O)c2F)c2cnc(N3CCOCC3Cc3ccccc3)nc21 (stereo not shown) [Compound 5.03, 3-(6-(3-Benzylmorpholino)-1-methyl-1H-pyrazolo[3,4-d]pyrimidin-3-yl)-2,6-difluoro-5-(trifluoromethyl)phenol] |
